Data from publication PMC8225008, “Development of Non-Ethoxypropanoic Acid Type Cryptochrome Inhibitors with Circadian Molecular Clock-Enhancing Activity by Bioisosteric Replacement” (Pharmaceuticals, 2021).

Tests used:
E-box-LUC reporter = experiment: E-box-LUC luciferase reporter assay, dose-response in stably transfected NIH3T3 cells; format: cell-based; details: Mus musculus, E-box-LUC reporter activity, NIH3T3, 36 h; for Emax: maximum response as a percentage of the vehicle-treated group, read-out: Max (%)
Protocol: Materials for cell culture were purchased from Thermo Fisher Scientific, unless otherwise stated. NIH3T3 and HEK293T cells were maintained in Dulbecco’s modified Eagle medium supplemented with 5% fetal bovine serum and 100 U/mL penicillin/streptomycin in a humidified atmosphere containing 5% CO2 at 37 °C. Plasmids and transfection experiments for luciferase reporter assay were described in our previous report. For dose-response experiments, mouse NIH3T3 cells stably transfected with an E-box-LUC reporter were plated in 12-well culture plates, treated as indicated for 36 h, and subjected to luciferase assay. For transient transfections, we seeded HEK293T cells in 12-well culture plates and used Lipofectamine® 3000 reagent to transfect cells with the E-box-LUC reporter and the indicated clock gene expression plasmids together with a thymidine kinase promoter-driven Renilla luciferase (pRL-TK) plasmids. We kept total DNA levels constant by adding an empty pcDNA3.1 plasmid. After 24 h of transfection, cells were treated with vehicle (0.1% DMSO) or chemical compounds at various concentrations for 36 h. Cell extracts were prepared by incubating cells in 0.3 mL reporter lysis buffer for 15 min at room temperature. Luciferase activity was measured with a commercial dual luciferase assay kit (Promega, Madison, WI, USA).
(§1) The EC50 values for luciferase reporter assay were calculated based on a logistic four-parametric equation using the mean values of intrinsic activation (SigmaPlot 10.0; Systat Software Inc., San Jose, CA, USA). The IC50 and t1/2 values for the cytochrome P450 inhibition assay and metabolic stability test were calculated by WinNonlin software (Pharsight, Mountain View, CA, USA). Pharmacokinetic parameters were calculated using non-compartmental analysis (WinNonlin v.8.3; Pharsight, Mountain View, CA, USA). Kinetic and equilibrium constants for SPR analysis were obtained by global fitting of the Langmuir 1:1 bimolecular kinetic model (ProteOn Manager v.3.1.0.6, Bio-Rad, Hercules, CA, USA). Circadian molecular clock-enhancing activities were expressed as means ± SE and statistically evaluated by Student’s t-test or one-way analysis of variance (ANOVA) followed by Newman–Keuls multiple comparison test for post hoc comparisons. The significance level for the analyses was set at p < 0.05.

CYP1A2 = target: T1, CYP1A2 (Homo sapiens, UniProt P05177); experiment: Cytochrome P450 inhibition assay (cocktail method, human liver microsomes), phenacetin O-deethylation; format: in vitro ADME
T1 construct: pooled human liver microsomes (HLMs, XTreme 200, XenoTech, Lenexa, KS, USA); tissue XenoTech XTreme 200; host or cells: pooled human liver microsomes
T1 sequence (P05177 1-516): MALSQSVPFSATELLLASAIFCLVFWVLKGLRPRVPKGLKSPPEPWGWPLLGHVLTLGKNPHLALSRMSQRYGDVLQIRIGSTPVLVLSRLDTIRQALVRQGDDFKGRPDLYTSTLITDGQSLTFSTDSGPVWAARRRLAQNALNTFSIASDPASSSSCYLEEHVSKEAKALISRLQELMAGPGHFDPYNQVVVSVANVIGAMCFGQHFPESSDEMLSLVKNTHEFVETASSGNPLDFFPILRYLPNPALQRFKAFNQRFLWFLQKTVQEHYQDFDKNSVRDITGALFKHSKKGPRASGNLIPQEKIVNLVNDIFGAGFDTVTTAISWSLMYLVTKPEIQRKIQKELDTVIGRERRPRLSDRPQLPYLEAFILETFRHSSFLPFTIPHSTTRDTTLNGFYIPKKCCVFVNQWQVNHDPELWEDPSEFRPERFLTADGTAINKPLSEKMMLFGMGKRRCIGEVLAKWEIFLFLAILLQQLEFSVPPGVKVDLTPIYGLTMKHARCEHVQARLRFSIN
Protocol: (§2) The inhibitory effects of KS15 and compound 5d on the metabolism of five cytochrome P450 (P450) probe substrates were evaluated using previous methods with slight modifications. The following P450 probe substrates were used: phenacetin (100 μM) for CYP1A2, tolbutamide (100 μM) for CYP2C9, omeprazole (20 μM) for CYP2C19, dextromethorphan (5 μM) for CYP2D6, and midazolam (5 μM) for CYP3A. Incubation mixtures containing pooled human liver microsomes (HLMs, XTreme 200, XenoTech, Lenexa, KS, USA), P450 probe substrates, and KS15 or compound 5d (final concentrations: 0, 0.5, 2, 5, 20, and 50 μM) were preincubated for 5 min at 37 °C. […] After centrifugation at 18,000× g (5 min, 4 °C), supernatant aliquots were analyzed by liquid chromatography-tandem mass spectrometry (LC-MS/MS). […]
(§3) All metabolites and IS were separated on a Kinetex C18 column (100 mm × 2.1 mm, 2.6 μm ID., Phenomenex, Torrance, CA, USA) and analyzed using an LC-MS/MS system (LCMS 8060, Shimadzu, Tokyo, Japan) equipped with an electrospray ionization (ESI) interface. […]
(§4) The EC50 values for luciferase reporter assay were calculated based on a logistic four-parametric equation using the mean values of intrinsic activation (SigmaPlot 10.0; Systat Software Inc., San Jose, CA, USA). […] Pharmacokinetic parameters were calculated using non-compartmental analysis (WinNonlin v.8.3; Pharsight, Mountain View, CA, USA). […]

[1] = Metabolic stability test in pooled human liver microsomes; format: in vitro ADME; details: pooled HLMs 1.0 mg/mL, 1 μM compound, NADPH generating system, read-out: t1/2 in HLMs
Protocol: The metabolic stability of KS15, 5d, or 2d was evaluated using pooled HLMs. Pooled HLMs (1.0 mg/mL), a potassium phosphate buffer, and a test compound (1 μM) were pre-incubated (37 °C, 5 min). To initiate the reaction, the NADPH generating system was added to the samples and incubated for specific time points (0, 5, 15, 20, 45, and 60 min). Then, aliquots were taken and reactions terminated in acetonitrile containing IS. After centrifugation, supernatants were analyzed using LC-MS/MS to determine KS15, 5d, or 2d concentrations in samples. Analyte separation was performed using a Kinetex C18 column (100 mm × 2.1 mm, 2.6 μm ID., Phenomenex). The mobile phase solvent A was 0.1% formic acid in water, and solvent B was 0.1% formic acid in acetonitrile. Gradient separation was performed as follows: 0–3 min (10–90% B) and 3.1–8 min (10% B). The flow rate was 0.2 mL/min, and the run time was 8 min for each sample. Electrospray ionization was conducted in positive ion mode at 4 kV. […] Quantitation was performed in the SRM of the [M+H]^+ ion and the related product ion for each test compound and IS: KS-15 (m/z 420 > 169, CE 30 eV), 5d (m/z 359 > 206, CE 20 eV), 2d (m/z 345 > 192, CE 22 eV), and IS (m/z 295 > 100, CE 17 eV).
as §1, with “Kinetic and equilibrium constants for SPR analysis were obtained by global fitting of the Langmuir 1:1 bimolecular kinetic model (ProteOn Manager v.3.1.0.6, Bio-Rad, Hercules, CA, USA).” left out, “The significance level for the analyses was set at p < 0.05.” left out

CYP3A = experiment: Cytochrome P450 inhibition assay (cocktail method, human liver microsomes), midazolam 1'-hydroxylation; format: in vitro ADME; details: pooled human liver microsomes, probe midazolam (5 μM)
Protocol: as §2, §3, §4

CYP2D6 = target: T2, CYP2D6 (Homo sapiens, UniProt P10635); experiment: Cytochrome P450 inhibition assay (cocktail method, human liver microsomes), dextromethorphan O-demethylation; format: in vitro ADME
T2 construct: pooled human liver microsomes (HLMs, XTreme 200, XenoTech, Lenexa, KS, USA); tissue XenoTech XTreme 200; host or cells: pooled human liver microsomes
Protocol: as §2, §3, §4

CYP2C19 = target: T3, CYP2C19 (Homo sapiens, UniProt P33261); experiment: Cytochrome P450 inhibition assay (cocktail method, human liver microsomes), omeprazole hydroxylation; format: in vitro ADME
T3 construct: pooled human liver microsomes (HLMs, XTreme 200, XenoTech, Lenexa, KS, USA); tissue XenoTech XTreme 200; host or cells: pooled human liver microsomes
Protocol: as §2, §3, §4

[2] = system: Per2-luciferase knock-in (Per2-Luc-KI) fibroblast cultures; experiment: Real-time bioluminescence monitoring of DEX-synchronized Per2-Luc-KI fibroblast cultures; format: cell-based, mouse; details: 20 μM, DEX-synchronized Per2-Luc-KI fibroblasts
Protocol: For real-time bioluminescence monitoring, we used mouse embryonic fibroblast (MEF) cultures established from Per2-LUC-KI mice. […] The medium was then replaced with a recording medium containing 0.1 mM D-luciferin (Promega) along with vehicle (0.1% DMSO), KS15 (20 μM), 5d (20 μM), or 2d (20 μM). Light emission for 2 min at intervals of 20 min was integrated using a dish-type wheeled luminometer (Kronos-Dio, ATTO Cooperation, Tokyo, Japan). Background-subtracted bioluminescence profiles were analyzed using Cosinor analysis software (available at http://www.circadian.org, last accessed on 19 May 2021).
as §1

CYP2C9 = target: T4, CYP2C9 (Homo sapiens, UniProt P11712); experiment: Cytochrome P450 inhibition assay (cocktail method, human liver microsomes), tolbutamide 4-methylhydroxylation; format: in vitro ADME
T4 construct: pooled human liver microsomes (HLMs, XTreme 200, XenoTech, Lenexa, KS, USA); tissue XenoTech XTreme 200; host or cells: pooled human liver microsomes
Protocol: as §2, §3, §4

T3 sequence (P33261 whole entry): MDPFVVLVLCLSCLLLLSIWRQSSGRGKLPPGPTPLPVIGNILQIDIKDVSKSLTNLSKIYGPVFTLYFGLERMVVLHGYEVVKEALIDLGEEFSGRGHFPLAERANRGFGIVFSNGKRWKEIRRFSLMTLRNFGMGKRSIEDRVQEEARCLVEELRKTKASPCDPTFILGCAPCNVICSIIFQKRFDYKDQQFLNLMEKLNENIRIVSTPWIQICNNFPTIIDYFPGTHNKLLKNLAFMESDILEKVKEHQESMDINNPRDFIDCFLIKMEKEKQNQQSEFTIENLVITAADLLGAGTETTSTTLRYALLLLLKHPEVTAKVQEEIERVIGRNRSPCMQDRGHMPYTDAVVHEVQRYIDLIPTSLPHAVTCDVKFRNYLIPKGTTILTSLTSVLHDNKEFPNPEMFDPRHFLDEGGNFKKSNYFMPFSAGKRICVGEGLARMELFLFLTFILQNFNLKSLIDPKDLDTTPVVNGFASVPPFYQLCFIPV
T4 sequence (P11712 whole entry): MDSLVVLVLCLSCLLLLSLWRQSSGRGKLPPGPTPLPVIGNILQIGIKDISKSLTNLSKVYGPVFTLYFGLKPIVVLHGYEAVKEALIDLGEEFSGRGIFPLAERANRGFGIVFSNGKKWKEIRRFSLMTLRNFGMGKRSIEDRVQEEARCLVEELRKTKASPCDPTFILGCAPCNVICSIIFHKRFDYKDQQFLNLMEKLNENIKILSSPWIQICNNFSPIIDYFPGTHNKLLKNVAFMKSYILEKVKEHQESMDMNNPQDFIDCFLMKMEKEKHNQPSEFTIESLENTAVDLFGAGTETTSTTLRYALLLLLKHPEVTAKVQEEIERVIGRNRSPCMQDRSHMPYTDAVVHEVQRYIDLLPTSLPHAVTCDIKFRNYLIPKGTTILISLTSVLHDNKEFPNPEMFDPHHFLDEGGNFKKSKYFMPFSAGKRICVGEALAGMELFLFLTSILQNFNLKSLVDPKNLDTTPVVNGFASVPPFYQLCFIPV
T2 sequence (P10635 whole entry): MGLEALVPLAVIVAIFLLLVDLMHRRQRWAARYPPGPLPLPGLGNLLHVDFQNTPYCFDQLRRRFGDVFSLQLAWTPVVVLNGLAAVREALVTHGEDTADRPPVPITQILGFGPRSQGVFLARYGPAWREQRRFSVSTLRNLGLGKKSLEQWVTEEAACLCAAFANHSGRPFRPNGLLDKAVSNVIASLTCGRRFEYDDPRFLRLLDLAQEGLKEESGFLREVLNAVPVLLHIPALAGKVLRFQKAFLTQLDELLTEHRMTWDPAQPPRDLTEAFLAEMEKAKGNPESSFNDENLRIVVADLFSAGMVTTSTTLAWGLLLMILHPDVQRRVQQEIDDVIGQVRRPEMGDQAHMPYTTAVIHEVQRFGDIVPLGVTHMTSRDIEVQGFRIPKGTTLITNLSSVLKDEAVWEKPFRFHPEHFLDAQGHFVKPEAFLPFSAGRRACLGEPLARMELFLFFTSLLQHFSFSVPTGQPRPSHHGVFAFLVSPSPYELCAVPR

Compound	EC50 (E-box-LUC reporter) [µM]	Emax (E-box-LUC reporter) [%]	other results
C/C(=N\OCc1ccc(Br)cc1)c1cccc(OCC(=O)O)c1 [Compound 2a]	1.54	165	
CC(=NOCc1cccc(C(F)(F)F)c1)c1cccc(OCC(=O)O)c1 [Compound 2b, 2-(3-(1-(((3-trifluoromethylbenzyl)oxy)imino)ethyl)phenoxy)acetic acid]		131	
COc1ccc(CON=C(C)c2cccc(OCC(=O)O)c2)cc1 [Compound 2c, 2-(3-(1-(((4-methoxybenzyl)oxy)imino)ethyl)phenoxy)acetic acid]	9.88	182	
CC(=NOCc1ccc(S(C)(=O)=O)cc1)c1cccc(OCC(=O)O)c1 [Compound 2e, 2-(3-(1-(((4-methylsulfonylbenzyl)oxy)imino)ethyl)phenoxy)acetic acid]		98.7	
COC(=O)COc1cccc(/C(C)=N/OCc2ccc(Br)cc2)c1 [Compound 5a]		149	
COC(=O)COc1cccc(C(C)=NOCc2cccc(C(F)(F)F)c2)c1 [Compound 5b, Methyl 2-(3-(1-(((3-trifluoromethylbenzyl)oxy)imino)ethyl)phenoxy)acetate]		172	
COC(=O)COc1cccc(C(C)=NOCc2ccc(OC)cc2)c1 [Compound 5c, Methyl 2-(3-(1-(((4-methoxybenzyl)oxy)imino)ethyl)phenoxy)acetate]	6.32	152	
COC(=O)COc1cccc(C(C)=NOCc2ccc(S(C)(=O)=O)cc2)c1 [Compound 5e, Methyl 2-(3-(1-(((4-methylsulfonylbenzyl)oxy)imino)ethyl)phenoxy)acetate]		105	
CCO[C@H](Cc1cccc(/C(C)=N/OCc2ccc(Br)cc2)c1)C(=O)O [KS15, reference compound]			IC50 (CYP1A2): 14.9 µM; half-life at 1 μM [1]: > 1 h; IC50 at 10 min (CYP3A): 24 µM; IC50 (CYP2D6): 23.1 µM; IC50 (CYP2C19): 20.2 µM; Amplitude of cyclic Per2 expression [2]: attenuates amplitude; Period of the rhythm [2]: did not significantly alter the period; IC50 (CYP2C9): 9.1 µM
